Data reported in US20250072419A1, “SYSTEMS AND METHODS FOR APPLICATION OF ACTIVE INGREDIENTS TO CANNABIS” (Hazel Technologies, Inc., priority 2020, published 2025).
Several values for one entry are separate records, joined by “and”; a condition that tells them apart may be missing. Equal entries are not always repeated.

Experiments:
Format in all cases: in vivo
Cannabis variety B [1] = test: cannabinoid profile of floral tissue by HPLC after 1-MCP treatment, variety B
Procedure: To examine the effect of 1-MCP exposure, six genetic replicates of a first variety of Cannabis (variety ‘A’) and six genetic replicates of a second variety of Cannabis (variety ‘B’) were grown under greenhouse conditions for a period of four weeks, then transferred to growth chamber conditions with a 12 hour photoperiod for three weeks to induce flower formation. Variety A was from a hybrid strain of 15% sativa and 85% indica bred by BC Bud Depot under the strain name Shiatsu. Variety B was from a hybrid strain of 50% sativa and 50% indica bred by Spectrum under the strain name Jack's Girl. Greenhouse conditions and growth chamber conditions are detailed in Table 1. Next, three of the genetic replicates of each variety were treated with 1-MCP via fumigation in a 295 cubic foot growth chamber for 18 hours using a source of the 1-MCP. The source of the 1-MCP was 250 g of a composition comprising 1-MCP in an amount of 2 wt % loaded in activated carbon as a porous adsorbent material. […]
Cannabinoids concentrations were measured in the genetic replicates from variety A and variety B of Example 1 at three time-points: T1—two days before the first treatment with 1-MCP; T2—one week after the first treatment with 1-MCP; and T3—after all 1-MCP treatments, once the genetic replicates had reached full plant maturity. […]

Cannabis variety B [2] = test: total biomass and flower biomass of dried plants after 1-MCP treatment, variety B
Procedure: (§1) To examine the effect of 1-MCP exposure, six genetic replicates of a first variety of Cannabis (variety ‘A’) and six genetic replicates of a second variety of Cannabis (variety ‘B’) were grown under greenhouse conditions for a period of four weeks, then transferred to growth chamber conditions with a 12 hour photoperiod for three weeks to induce flower formation. Variety A was from a hybrid strain of 15% sativa and 85% indica bred by BC Bud Depot under the strain name Shiatsu. Variety B was from a hybrid strain of 50% sativa and 50% indica bred by Spectrum under the strain name Jack's Girl. Greenhouse conditions and growth chamber conditions are detailed in Table 1. Next, three of the genetic replicates of each variety were treated with 1-MCP via fumigation in a 295 cubic foot growth chamber for 18 hours using a source of the 1-MCP. The source of the 1-MCP was 250 g of a composition comprising 1-MCP in an amount of 2 wt % loaded in activated carbon as a porous adsorbent material. The treatment was initially activated via the addition of 0.07 gallons of liquid water to the composition, which accelerated release of 1-MCP and established an atmosphere within the growth chamber of 36.3 ppm 1-MCP. Twelve days later, the 18-hour 1-MCP treatment was repeated, and the treatment was repeated again the next day. Control groups of each variety were watered and exposed to identical conditions except that they were never fumigated with 1-MCP.
(§2) To examine the effect of 1-MCP exposure, the genetic replicates from variety A and variety B of Example 1 were measured (i) after plants were dried and (ii) after plants were dried and trimmed, reflecting flower biomass. Measurement (i) provided the total biomass of each genetic replicate, while measurement (ii) provided the mass of consumer-ready product. The drying of the plants was performed by placing the plants into a drying chamber (90° F., 16% relative humidity) for 72 hours prior to measurement and/or trimming.

[3] = tested on: female Cannabis plants, variety 'A' (Shiatsu, 15% sativa and 85% indica); test: development of male sex organs / phenotype on female plants after 1-MCP fumigation, variety A
Procedure: as §1, with “Control groups of each variety were watered and exposed to identical conditions except that they were never fumigated with 1-MCP.” left out

Cannabis variety A [4] = test: cannabinoid profile of floral tissue by HPLC after 1-MCP treatment, variety A
Procedure: as §1
Cannabinoids concentrations were measured in the genetic replicates from variety A and variety B of Example 1 at three time-points: T1—two days before the first treatment with 1-MCP; T2—one week after the first treatment with 1-MCP; and T3—after all 1-MCP treatments, once the genetic replicates had reached full plant maturity. At each timepoint, three samples of floral tissue were collected from each genetic replicate and frozen overnight. To prepare samples of floral tissue for high performance liquid chromatography (HPLC) analysis, frozen floral tissue was ground, extracted in HPLC-grade methanol, and filtered. HPLC was performed on the filtered methanol, providing a cannabinoid profile for each sample of floral tissue.
Analysis of Variance (ANOVA) was performed to evaluate the effect of 1-MCP on cannabinoid content under each set of experimental conditions.

[5] = tested on: female Cannabis plants, variety 'B' (Jack's Girl, 50% sativa and 50% indica); test: development of male sex organs on female plants after 1-MCP fumigation, variety B; settings: for Flower clusters displaying male organs 30 days after treatment 3 (%): 36.3 ppm 1-MCP
Procedure: as §1
Stamens were not observed in variety ‘A’ genetic replicates or in either control group.

Cannabis variety A [6] = test: total biomass and flower biomass of dried plants after 1-MCP treatment, variety A
Procedure: as §1, §2

[7] = Treatment, single specimens, dried and trimmed plants
[8] = Treatment, single specimens, dried plants

## CC1=CC1 [1-MCP, 1-methylcyclopropene]
Cannabis variety B [1]
  deleterious effects on the overall profile of cannabinoids: no deleterious effects
Cannabis variety B [1]; mature plants (T3) (FIG. 8)
  total cannabinoid concentration, treated versus control (ANOVA): no statistically significant difference
Cannabis variety B [2]
  decrease in flower biomass versus control: ~2%
  decrease in total biomass versus control: ~2%
  deleterious effect on the biomass: did not have a deleterious effect
Cannabis variety B [2]; Treatment, mean of 3 specimens, control mean 102.3
  Flower Biomass Group Mean: 100.3 g
Cannabis variety B [2]; Treatment, mean of 3 specimens, control mean 118.3
  Total Biomass Group Mean: 115.6 g
Cannabis variety B [2]; [7]
  Flower Biomass: 95 g and 106 g and 100 g
Cannabis variety B [2]; [8]
  Total Biomass: 111 g and 121 g and 115 g
[3]; variety A genetic replicates treated with 1-MCP
  staminate growth: Staminate growth was not observed
[3]; variety A, three 1-MCP-treated plants (FIG. 7), none of three controls
  plants observed to have purple leaves: two of three
Cannabis variety A [4]; variety A
  deleterious effects on the overall profile of cannabinoids: no deleterious effects
Cannabis variety A [4]; variety A (FIGS. 9A-C)
  THCA, THCVA and CBGA concentrations, treated versus control (ANOVA): A few statistically significant differences
Cannabis variety A [4]; variety A, mature plants (T3) (FIG. 8)
  total cannabinoid concentration, treated versus control (ANOVA): no statistically significant difference
Cannabis variety A [4]; variety A, timepoint T2, one week after the first treatment (FIG. 8)
  total cannabinoid concentration, treated versus control (ANOVA): statistically significant difference
[5]; 15 days after final fumigation (FIG. 5)
  stamen growth on female floral tissue: presence of multiple stamens
[5]; 19 days after final fumigation (FIG. 6)
  stamen growth on female floral tissue: multiple stamens
[5]; Plant 1, three 18 h fumigations
  Flower clusters displaying male organs 30 days after treatment 3 (%): 97%
[5]; Plant 2, three 18 h fumigations
  Flower clusters displaying male organs 30 days after treatment 3 (%): 100%
[5]; Plant 3, three 18 h fumigations
  Flower clusters displaying male organs 30 days after treatment 3 (%): 86%
[5]; five days after final fumigation (FIG. 4)
  stamen growth on female floral tissue: further development of stamen growth
[5]; thirty days after the final 1-MCP treatment
  flower clusters displaying staminate growth: 80-100%
[5]; three days after the final fumigation (FIG. 3)
  stamen growth on female floral tissue: stamens were observed
Cannabis variety A [6]
  deleterious effect on the biomass: did not have a deleterious effect
  increase in flower biomass over the control group: ~10%
  increase in total biomass over the control group: ~22%
Cannabis variety A [6]; Treatment, mean of 3 specimens, control mean 87.6
  Flower Biomass Group Mean: 95.3 g
Cannabis variety A [6]; Treatment, mean of 3 specimens, control mean 105
  Total Biomass Group Mean: 118.3 g
Cannabis variety A [6]; [7]
  Flower Biomass: 98 g and 90 g
Cannabis variety A [6]; [8]
  Total Biomass: 130 g and 120 g and 105 g
